From patent US7666890B2, “Synthesis and herbicidal activity of 1- (2-substituted benzo[d]thiazol-5-yl)-1H-1,2,4-triazol-5(4H)-one derivatives” (Huazhong Normal University, priority 2007, dated 2010)

Assays:
Assay in all cases: Test of herbicidal activities (greenhouse pot method)
Type in all cases: in vivo
Conditions in all cases: single dose 300 g ai./h, treated before/after germination, 15 days later, greenhouse pot
[1] = tested on: Amaranthus retroflexus
Procedure, shortened: (§1)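 Greenhouse pot test at a single dose of 300 g ai./h, applied by spray tower pre- or post-emergence, with grasses at the 2-leaf stage, in triplicate with a blank control. Plants were kept at 15–30 °C. Inhibition was graded after 15 days: A 90–100%, B 80–<90%, C 60–<80%, D 50–<60%, E <50%.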

[2] = tested on: Setaria viridis
Procedure, shortened: as §1

[3] = tested on: Brassica juncea
Procedure, shortened: as §1

[4] = tested on: Chenopodium album
Procedure, shortened: as §1

[5] = tested on: Digiatria sanguinalis
Procedure, shortened: as §1

[6] = tested on: Echinochloa crusgalli
Procedure, shortened: as §1

Row | SMILES | Herbicidal activity Amaranthus retroflexus (inhibition level) [1] | Herbicidal activity Setaria viridis (inhibition level) [2] | Herbicidal activity Brassica juncea (inhibition level) [3] | Herbicidal activity Chenopodium album (inhibition level) [4] | Herbicidal activity Digiatria sanguinalis (inhibition level) [5] | Herbicidal activity Echinochloa crusgalli (inhibition level) [6]
1 | CCCC[S+]([O-])c1nc2cc(-n3nc(C)n(C(F)F)c3=O)c(F)cc2s1 (stereo not drawn) [Compound 120] | C (60 ≦ C < 80%) | B (80 ≦ B < 90%) | A (90 ≦ A ≦ 100%) | B (80 ≦ B < 90%) | B (80 ≦ B < 90%) | D (50 ≦ D < 60%)
2 | Cc1nn(-c2cc3nc(SCc4ccc(Cl)cc4)sc3cc2Cl)c(=O)n1C(F)F [Compound 5] | A (90 ≦ A ≦ 100%) | E (E < 50%) | B (80 ≦ B < 90%) | E (E < 50%) | B (80 ≦ B < 90%) | C (60 ≦ C < 80%)
3 | Cc1nn(-c2cc3nc(S(=O)(=O)Cc4ccc(Br)cc4)sc3cc2Cl)c(=O)n1C(F)F [Compound 42] | A (90 ≦ A ≦ 100%) | B (80 ≦ B < 90%) | C (60 ≦ C < 80%) | D (50 ≦ D < 60%) | A (90 ≦ A ≦ 100%) | E (E < 50%)
4 | Cc1nn(-c2cc3nc(S(=O)(=O)Cc4cccc(Cl)c4)sc3cc2Cl)c(=O)n1C(F)F [Compound 40] | B (80 ≦ B < 90%) | C (60 ≦ C < 80%) | B (80 ≦ B < 90%) | D (50 ≦ D < 60%) | C (60 ≦ C < 80%) | E (E < 50%)
5 | Cc1nn(-c2cc3nc(SCc4coc5ccccc5c4=O)sc3cc2Br)c(=O)n1C(F)F [Compound 28] | C (60 ≦ C < 80%) | D (50 ≦ D < 60%) | A (90 ≦ A ≦ 100%) | C (60 ≦ C < 80%) | B (80 ≦ B < 90%) | B (80 ≦ B < 90%)
6 | Cc1nn(-c2cc3nc(SCc4cccc([N+](=O)[O-])c4)sc3cc2F)c(=O)n1C(F)F [Compound 13] | A (90 ≦ A ≦ 100%) | C (60 ≦ C < 80%) | B (80 ≦ B < 90%) | C (60 ≦ C < 80%) | B (80 ≦ B < 90%) | C (60 ≦ C < 80%)
7 | CC[S+]([O-])c1nc2cc(-n3nc(C)n(C(F)F)c3=O)c(Br)cc2s1 (stereo not drawn) [Compound 109] | B (80 ≦ B < 90%) | B (80 ≦ B < 90%) | A (90 ≦ A ≦ 100%) | A (90 ≦ A ≦ 100%) | B (80 ≦ B < 90%) | A (90 ≦ A ≦ 100%)
8 | CCOC(=O)CS(=O)(=O)c1nc2cc(-n3nc(C)n(C(F)F)c3=O)c(F)cc2s1 [Compound 65] | A (90 ≦ A ≦ 100%) | B (80 ≦ B < 90%) | A (90 ≦ A ≦ 100%) | A (90 ≦ A ≦ 100%) | B (80 ≦ B < 90%) | C (60 ≦ C < 80%)
9 | CCOC(=O)C[S+]([O-])c1nc2cc(-n3nc(C)n(C(F)F)c3=O)c(Br)cc2s1 (stereo not drawn) [Compound 111] | A (90 ≦ A ≦ 100%) | C (60 ≦ C < 80%) | B (80 ≦ B < 90%) | E (E < 50%) | C (60 ≦ C < 80%) | A (90 ≦ A ≦ 100%)
10 | Cc1nn(-c2cc3nc(SCc4ccccc4)sc3cc2F)c(=O)n1C(F)F [Compound 11] | B (80 ≦ B < 90%) | C (60 ≦ C < 80%) | A (90 ≦ A ≦ 100%) | C (60 ≦ C < 80%) | B (80 ≦ B < 90%) | E (E < 50%)
11 | CCOC(=O)C(C)Sc1nc2cc(-n3nc(C)n(C(F)F)c3=O)c(F)cc2s1 (stereo not drawn) [Compound 89] | B (80 ≦ B < 90%) | A (90 ≦ A ≦ 100%) | B (80 ≦ B < 90%) | C (60 ≦ C < 80%) | A (90 ≦ A ≦ 100%) | A (90 ≦ A ≦ 100%)
12 | Cc1nn(-c2cc3nc(S(C)(=O)=O)sc3cc2Cl)c(=O)n1C(F)F [Compound 68] | A (90 ≦ A ≦ 100%) | B (80 ≦ B < 90%) | B (80 ≦ B < 90%) | C (60 ≦ C < 80%) | B (80 ≦ B < 90%) | A (90 ≦ A ≦ 100%)
13 | CSc1nc2cc(-n3nc(C)n(C(F)F)c3=O)c(Br)cc2s1 [Compound 79] | B (80 ≦ B < 90%) | B (80 ≦ B < 90%) | B (80 ≦ B < 90%) | C (60 ≦ C < 80%) | A (90 ≦ A ≦ 100%) | B (80 ≦ B < 90%)
14 | Cc1nn(-c2cc3nc(S(=O)(=O)Cc4cccc(F)c4)sc3cc2Cl)c(=O)n1C(F)F [Compound 44] | B (80 ≦ B < 90%) | B (80 ≦ B < 90%) | C (60 ≦ C < 80%) | C (60 ≦ C < 80%) | C (60 ≦ C < 80%) | C (60 ≦ C < 80%)
15 | CCCCCCS(=O)(=O)c1nc2cc(-n3nc(C)n(C(F)F)c3=O)c(F)cc2s1 [Compound 55] | C (60 ≦ C < 80%) | B (80 ≦ B < 90%) | C (60 ≦ C < 80%) | A (90 ≦ A ≦ 100%) | B (80 ≦ B < 90%) | E (E < 50%)
